From US20100221308A1, “ANTIMICROBIAL COMPOSITIONS AND USES THEREOF” (KANE BIOTECH INC., priority 2005, published 2010) come the findings set out here.

≈ marks a conversion by molar mass, not a printed value. Like-named read-outs stand apart in the source and are kept apart here.

One test deals with P. aeruginosa. The test can be described thus: MIC, broth microdilution assay. In kind it is cell-based, Pseudomonas aeruginosa. The settings on record: agent alone, 24 h.
For a further test, the system named is S. sobrinus HNG 909S. The test can be described thus: MIC for oral bacteria, broth microdilution assay. In kind it is cell-based. The settings on record: agent alone, 24 h. As to the method:
(§1) The minimum inhibitory concentrations (MICs) of chlorhexidine (CHX) and protamine sulfate (PS) alone and CHX and PS combination for S. mutans, S. sobrinus and A. naeslundii were determined using a broth microdilution assay in 96-well microtiter plate as described previously (Amsterdam, D. 1996., In: V. Loman, Ed., “Antibiotics in laboratory medicine”, p. 52-111, Williams and Wilkins, Baltimore, Md.). S. mutans and S. sobrinus were grown overnight at 37° C. with 100 rpm shaking in THYE broth supplemented with 0.01% hog gastric mucin, and A. naeslundii was grown in TSB-YK broth, and diluted to approximately 10^5 CFU/ml. […] Plates were incubated at 37° C. for 24 h and were read at 600 nm using a microtiter plate reader (Labsystems, Multiskan Ascent, Helsinki, Finland).
On the technique in general: Dilution methods test growth across graded concentrations, often in twofold steps.

The test system of another test is S. mutans UA 159. Put plainly: MIC for oral bacteria, broth microdilution assay. The settings on record: agent alone, 24 h. Format: cell-based. How it is done: as §1
A further test has as its system A. naeslundii ATCC 12104. The test can be described thus: MIC for oral bacteria, broth microdilution assay. In kind it is cell-based. Particulars: agent alone, 24 h. As to the method:
as §1

For another test, the system named is E. coli. The test can be described thus: MIC, broth microdilution assay. Format: cell-based. Particulars: agent alone, 24 h.
For a further test, the system named is S. thermophilus. Put plainly: MIC, broth microdilution assay. The settings on record: agent alone, 24 h. In kind it is cell-based, Streptococcus thermophilus.
For test [1], the system named is biofilm embedded Pseudomonas aeruginosa. Put plainly: In vitro microplate assay, growth of biofilm embedded bacteria (CFU). In kind it is cell-based. The settings on record: FIG. 2: 25 μg/ml PS, 25 μg/ml CHX; 24 hours. How it is done:
(§2) In vitro microplate assays were performed to determine the enhanced effects of protamine sulfate and chlorhexidine salt combination on the growth of biofilm embedded biofilm forming catheter-associated bacteria such as E. coli, Pseudomonas aeruginosa and Staphylococcus epidermidis. Overnight culture of each bacterial strain grown in Luria-Bertani (LB) or Tryptic Soy Broth (TSB) was used as inoculum. Bacteria were grown in Colony Forming Antigen (CFA) medium (for gram-negative) or in TSB (for gram-positive) on a 12-well microplate in the absence and presence of each test compound (PS or CHX) separately and together (PS+CHX) at 12.5, 25, or 50 μg/ml. The plate was incubated at 37° C. for 24 hours. Media containing planktonic cells in each well were removed gently and rinsed with sterile water. A known volume of water was added to each well and sonicated for 30 seconds. The transfer of contents of each well into a sterile tube and vortexing for a minute was followed by 10-fold serial dilution and plating on agar plates using a spreader. After incubating the plates at 37° C. for 24 hours, the colonies forming units (CFU) were counted.

The next test has as its system biofilm embedded E. coli. The test is described as above. Particulars: FIG. 1: 50 μg/ml PS, 12.5 μg/ml CHX; 24 hours. Format: cell-based. How it is done:
as §2

A further test relates to C. perfringens. The test can be described thus: microbe, parasite or virus in culture. Format: cell-based, Clostridium perfringens. Particulars: 24 h.
Another test concerns S. aureus. The test can be described thus: MIC, broth microdilution assay. In kind it is cell-based, Staphylococcus aureus. The settings on record: agent alone, 24 h.
Another test concerns L. monocytogens. Put plainly: MIC, broth microdilution assay. Format: cell-based, Listeria monocytogenes. Particulars: agent alone, 24 h.
The next test deals with B. cereus. Put plainly: MIC, broth microdilution assay. In kind it is cell-based, Bacillus cereus. Particulars: agent alone, 24 h.
The subject of test [2] is biofilm embedded Staphylococcus epidermidis. The test can be described thus: In vitro microplate assay, growth of biofilm embedded bacteria (CFU). The settings on record: FIG. 3: 12.5 μg/ml PS, 12.5 μg/ml CHX; 24 hours. In kind it is cell-based. As to the method: as §2, with “Bacteria were grown in Colony Forming Antigen (CFA) medium (for gram-negative) or in TSB (for gram-positive) on a 12-well microplate in the absence and presence of each test compound (PS or CHX) separately and together (PS+CHX) at 12.5, 25, or 50 μg/ml.” left out

The subject of the next test is K. pneumoniae. Put plainly: MIC, broth microdilution assay. In kind it is cell-based, Klebsiella pneumoniae. Particulars: agent alone, 24 h.

In the case of `[H]/N=C(\N/C(=N/[H])NCCCCCCNC(=N)NC(=N)Nc1ccc(Cl)cc1)Nc1ccc(Cl)cc1` [CHX, chlorhexidine], the MIC was 12.5 µg/mL (≈ 24.7 µM) in the test with P. aeruginosa (Pseudomonas aeruginosa, read-out: MIC); 1.56 µg/mL in the test on S. sobrinus HNG 909S (Streptococcus sobrinus, HNG909S, read-out: Minimum inhibitory concentration); 6.25 µg/mL with S. mutans UA 159 (Streptococcus mutans, UA159, read-out: Minimum inhibitory concentration); 50 µg/mL with A. naeslundii ATCC 12104 (Actinomyces naeslundii, ATCC12104, read-out: Minimum inhibitory concentration); 0.39 µg/mL (≈ 0.772 µM) in the test on E. coli (Escherichia coli, read-out: MIC); less than 0.195 µg/mL in the test on S. thermophilus (Streptococcus thermophilus, read-out: MIC). Also, the MIC against C. perfringens (Clostridium perfringens) came to 1.56 µg/mL (≈ 3.09 µM); in the test on S. aureus (Staphylococcus aureus, read-out: MIC), 0.781 µg/mL (≈ 1.55 µM); with L. monocytogens (Listeria monocytogenes, read-out: MIC) it was 3.12 µg/mL (≈ 6.18 µM); in the test on B. cereus (Bacillus cereus, read-out: MIC), 3.12 µg/mL (≈ 6.18 µM); in the test on K. pneumoniae (Klebsiella pneumoniae, read-out: MIC), 6.25 µg/mL (≈ 12.4 µM). Moreover, the “inhibition of growth of biofilm embedded organism (CFU), in words” value (in test [1]; with biofilm embedded E. coli; in test [2]) was “more effective than protamine sulfate” each time.

Turning to protamine sulfate [PS], the MIC in the test with P. aeruginosa is 200 µg/mL; against E. coli it was greater than 100 µg/mL; against S. thermophilus, 200 µg/mL; with C. perfringens (agent alone), greater than 200 µg/mL; against S. aureus it was 200 µg/mL; in the test with L. monocytogens, 200 µg/mL. The MIC in the test with B. cereus and with K. pneumoniae was greater than 200 µg/mL each time. The Minimum inhibitory concentration in the test with S. sobrinus HNG 909S, in the test with S. mutans UA 159 and in the test with A. naeslundii ATCC 12104 was greater than 200 µg/mL throughout.
